Results reported in US9790496B2, “Microrna compounds and methods for modulating MIR-21 activity” (Regulus Therapeutics, Inc., priority 2011, dated 2017).
Several values for one entry are separate records, joined by “and”; a condition that tells them apart may be missing. Equal entries are not always repeated.

Legend:
[1] = system: ischemia reperfusion injury (IRI) model; test: Unilateral IRI model: collagen area fraction of kidney tissue; assay type: in vivo, mouse
Experimental: A model of ischemia reperfusion injury (IRI) is created in the mouse through unilateral or bilateral clamping of kidney arteries, which leads to tubule damage, inflammation, and fibrosis. Kidney dysfunction can occur either early (<5 days) or late (>7 days) in this model, with the early time points useful to test candidate agents for the treatment of acute kidney injury, and the later time points useful to model chronic fibrosis.
Anti-miR-21 compounds were tested in the unilateral IRI model. Unilateral IRI was induced for a period of 30 minutes. Treatment groups were as follows: sham IRI procedure; IRI with PBS administered subcutaneously; IRI with anti-miR-21 compound 25070 administered intraperitoneally at a dose of 20 mg/kg; the 2′-fluoro/2′-MOE modified anti-miR-21 25919 administered intraperitoneally at a dose of 20 mg/kg; and a 2′-fluoro/2′ modified mismatch anti-miR-21 (having three mismatches to the sequence of miR-21) 25319 administered intraperitoneally at a dose of 20 mg/kg. PBS or anti-miR compound was administered on days 5, 6, and 7 following IRI, and animals were sacrificed 14 days after IRI. As anti-miR compound is administered 5 days following the injury to the kidney, or later, when fibrosis has already occurred to some extent, this treatment regimen is considered a therapeutic regimen, rather than a prophylactic regimen.
Kidney tissue was collected for analysis of collagen 1A1 and collagen 3A1 expression (shown in Table O), and collagen area fraction (shown in Table P).
A similar study was performed with the same treatment groups and additional days of treatment. In this study, treatments were administered intraperitoneally at days 5, 6, 7, 14, and 21 following the IRI procedure Animals were sacrificed on Day 27, and kidney tissue was collected for analysis of collagen 1A1 and collagen 3A1 expression, as well as collagen area fraction.

[2] = system: collagen 1A1 and collagen 3A1 expression in kidney, unilateral ureteral obstruction (UUO) model; test: UUO model of kidney fibrosis: kidney collagen 1A1 and collagen 3A1 expression by real-time PCR; assay type: in vivo, mice; conditions: for Collagen 1A1 (Normalized Expression), individual animal / Collagen 3A1 (Normalized Expression), individual animal: 20 mg/kg
How it was run: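 Fibrosis induced by unilateral ureter ligation, groups of 8; anti-miR-21 compounds dosed at 20 mg/kg around surgery (days −3, −1, +5 or −5, −3, +3; repeat study subcutaneous at −5, −2, +3). Kidneys taken on day 10 or 11; Col1A1 and Col3A1 mRNA measured by real-time PCR, normalized to GAPDH and, in one study, also to sham.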

[3] = system: ischemia reperfusion injury/nephrectomy (IR/Nx) model; test: Survival rate of IR/Nx model mice two days after nephrectomy; assay type: in vivo
Experimental: The survival rate of IR/Nx model mice two days after nephrectomy was determined across six different experiments to determine if administration of anti-miR-21 compounds increases survival. In the first three experiments, anti-miR-21 compound was administered on days 5, 6, and 7 after ischemia reperfusion injury, and nephrectomy occurred on day 10 or day 11. In the second three experiments, anti-miR-21 compound was administered on days 2, 3, and 4, and nephrectomy occurred on day 7.

[4] = system: unilateral ureteral obstruction (UUO) model of fibrosis; test: UUO model: collagen area fraction of kidney tissue (picrosirius red histology); assay type: in vivo, mice; conditions: UUO comparison study, 25070 20 mg/kg s.c., irbesartan PO
Experimental: Control treatment groups included UUO only (sham) and UUO with PBS administered subcutaneously. An additional control group included UUO with Tween-MC/20 carrier perorally. 25070 administered subcutaneously at dose of 20 mg/kg at 5 days prior to, 2 days prior to, and 3 days after, the UUO procedure. Irbesartan was administered perorally on daily on days 0 through 7 following the UUO procedure. Animals were sacrificed on Day 10 following the UUO procedure. Kidney tissue was collected for measurement of collagen 1A1 and collagen 3A1 expression.
The ‘collagen area fraction’ is measured histologically through quantitative image processing of the area of kidney tissue that is stained red by the picrosirius red stain; the percent detected as red is normalized by the area of kidney section.

[5] = UUO comparison study, 25070 20 mg/kg s.c. at days -5, -2, +3, irbesartan PO daily days 0-7, sacrifice Day 10
[6] = UUO, 20 mg/kg at days -3, -1, +5 (prophylactic), kidney at day 11, real-time PCR normalized to GAPDH then sham
[7] = meta-analysis of repeated UUO studies, 20 mg/kg at days -3, -1, +5, kidney at day 11
[8] = repeat UUO study, 20 mg/kg SC, prophylactic

Sequence: AECSATCSAGTCSTGAUSAAGCSTAE (ACATCAGTCTGATAAGCTA; modified nucleosides coded in name, code key not given here) [Compound 25070]
- Collagen Area Fraction (#), individual animal ([1]; 20 mg/kg intraperitoneally on days 5, 6, 7, sacrifice 14 days after IRI, 20 mg/kg): 10.266 and 11.772 and 10.267 and 8.404 and 7.862 and 6.975 and 8.381 and 13.773
- Collagen Area Fraction (#), Mean ([1]; 20 mg/kg intraperitoneally on days 5, 6, 7, sacrifice 14 days after IRI, group mean): 9.7
- reduction in collagen area fraction (in words) ([1]; i.p. 20 mg/kg on days 5, 6, 7, sacrificed 14 days after IRI): statistically significant reduction
- reduction in collagen area fraction (in words) ([1]; i.p. on days 5, 6, 7, 14, 21, sacrificed Day 27): statistically significant reduction
- Collagen Area Fraction (#), individual animal ([1]; intraperitoneally on days 5, 6, 7, 14, 21, sacrifice Day 27): 7.354 and 9.241 and 9.589 and 11.573 and 8.182 and 10.695 and 13.978 and 10.12
- Collagen 1A1 (Normalized Expression), individual animal [2, 5]: 87.5 and 67.4 and 22.2 and 61.9 and 42.0 and 69.2 and 68.4 and 95.2
- Collagen 3A1 (Normalized Expression), individual animal [2, 5]: 38.6 and 56.9 and 77.2 and 50.7 and 76.4 and 49.7 and 44.3 and 35.9
- reduction in Col3a1 expression (in words) ([2]; UUO comparison with irbesartan, 25070 s.c. 20 mg/kg days -5, -2, +3, irbesartan perorally daily days 0-7, day 10): statistically significant reductions
- reduction in Col1A1 expression relative to saline-treated animals (in words) ([2]; UUO comparison with irbesartan, 25070 s.c. 20 mg/kg days -5, -2, +3, irbesartan perorally daily days 0-7, day 10, p<0.05 one-way ANOVA): statistically significant reduction
- Collagen 1A1 (Normalized Expression), Mean ([2]; UUO, 20 mg/kg at days -3, -1, +5 (prophylactic), kidney at day 11, group mean): 81.0
- Collagen 1A1 (Normalized Expression), individual animal [2, 6]: 67.7 and 97.7 and 88.8 and 95.9 and 71.4 and 44.5 and 73.0 and 109.4
- Collagen 3A1 (Normalized Expression), individual animal [2, 6]: 36.4 and 75.6 and 47.3 and 55.5 and 63.3 and 28.5 and 64.2 and 72.9
- inhibition of collagen 1A1 expression [2, 7]: 40%
- inhibition of collagen 3A1 expression [2, 7]: 30%
- Collagen 1A1 (Normalized Expression), individual animal [2, 8]: 13.9 and 9.2 and 32.3 and 57.2 and 47.6 and 26.1 and 35.0 and 20.4
- Collagen 3A1 (Normalized Expression), individual animal [2, 8]: 34.9 and 47.4 and 25.3 and 38.0 and 47.9 and 54.3 and 56.1 and 35.2
- inhibition of collagen 1A1 and collagen 3A1 expression (in words) ([2]; repeated UUO study, subcutaneously 20 mg/kg, prophylactic): potent inhibitor of collagen 1A1 and collagen 3A1 expression
- Survival rate 2 days after Nx ([3]; Study 4, Nx Day 7, 20 mg/kg on days 2, 3, 4 after IR): 75%
- survival rate 2 days after nephrectomy ([3]; first three experiments: dosing days 5, 6, 7, nephrectomy day 10 or 11, PBS 55%, P=0.02): 80%
- survival rate 2 days after nephrectomy ([3]; second three experiments: dosing days 2, 3, 4, nephrectomy day 7, PBS 52%, P=0.11): 69%
- Collagen Area Fraction (%), Mean ([4]; group mean): 8.0%
- Collagen Area Fraction (%), individual animal ([4]; sacrifice Day 10, 20 mg/kg): 7.632% and 9.937% and 8.015% and 6.611% and 6.319% and 11.272% and 6.803% and 7.405%
